Source: patent US8354403B2, “Pyrrolidine derived beta 3 adrenergic receptor agonists” (Merck Sharp & Dohme Corp., priority 2009, dated 2013)
Read-outs that look alike come from different tables or passages of the source.

Biological target: T1, human β3 adrenergic receptor (Homo sapiens, UniProt P13945)
T1 construct: expressed in transfected cells; host or cells: Chinese hamster ovary (CHO) cells, stably transfected
Assay: Beta-3 agonist in vitro functional assay: cAMP production (LANCE TR-FRET) in CHO cells stably transfected with the cloned β3 receptor
Type: cell-based
Protocol: Chinese hamster ovary (CHO) cells, stably transfected with the cloned β-adrenergic receptor (β1, β2 or β3) are harvested after 3 days of subculturing. Harvesting of cells is done with Enzyme-free Dissociation Media (Specialty Media). Cells are then counted and resuspended in assay buffer (Hank's Balanced salt solution supplemented with 5 mM HEPES, […]) containing a phosphodiesterase inhibitor (IBMX, 0.6 mM). The reaction is initiated by mixing 6,000 cells in 6 μL with 6 μL Alexa Fluor labeled cAMP antibody (LANCE™ kit) which is then added to an assay well containing 12 μL of compound (diluted in assay buffer to 2× final concentration). The reaction proceeds for 30 minutes at RT and is terminated by the addition of 24 ul detection buffer (LANCE™ kit). The assay plate is then incubated for 1 h at RT and time-resolved fluorescence measured on a Perkin Elmer Envision reader or equivalent. The unknown cAMP level is determined by comparing fluorescence levels to a cAMP standard curve.
The non-selective, full agonist β-adrenergic ligand isoproterenol is used at all three receptors to determine maximal stimulation. […] Data are analyzed using Microsoft Excel and Graphpad Prism or an internally developed data analysis software package.

[1] = Table 8, Beta-3 agonist in vitro functional assay, read-out: Human β3 agonist functional activity
[2] = Table 10, Beta-3 agonist in vitro functional assay, read-out: Human β3 agonist functional activity
[3] = Table 5, cAMP, CHO cells, read-out: Human β3 agonist functional activity
[4] = Table 11, cAMP, CHO cells, read-out: Human β3 agonist functional activity
[5] = Table 4, cAMP, CHO cells, read-out: Human β3 agonist functional activity
[6] = Table 9, Beta-3 agonist in vitro functional assay, read-out: Human β3 agonist functional activity
[7] = Table 12, human β3 functional activity given as ranges, read-out: Human β3 agonist functional activity

T1 sequence (P13945 whole entry): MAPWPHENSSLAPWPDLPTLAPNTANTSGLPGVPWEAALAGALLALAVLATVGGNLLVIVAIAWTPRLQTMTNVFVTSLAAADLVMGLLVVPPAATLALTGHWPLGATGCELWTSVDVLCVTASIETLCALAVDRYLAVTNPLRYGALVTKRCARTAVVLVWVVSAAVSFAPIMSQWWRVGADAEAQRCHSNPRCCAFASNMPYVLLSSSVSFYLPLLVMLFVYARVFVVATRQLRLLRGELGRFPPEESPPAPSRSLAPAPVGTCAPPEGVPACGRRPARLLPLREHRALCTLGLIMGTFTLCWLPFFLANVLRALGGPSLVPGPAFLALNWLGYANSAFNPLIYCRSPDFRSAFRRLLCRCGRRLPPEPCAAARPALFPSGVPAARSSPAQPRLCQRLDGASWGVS

Compound: O=C(c1ccc(C[C@@H]2CC[C@H]([C@H](O)c3ccccc3)N2)cc1)N1CCC2(CCCC2=O)CC1 [Example 316]
- EC50 [1]: 1 to 9.9 nM

Compound: CC(C(=O)N1CCC(O)CC1)N1CCN(C(=O)c2ccc(C[C@@H]3CC[C@H]([C@H](O)c4ccccc4)N3)cc2)CC1 (some centres unmarked) [Example 489]
- EC50 [2]: 10 to 99.9 nM

Compound: CCOC(=O)C1C2CN(C(=O)c3ccc(CC4CCC(C(O)c5ccccc5)N4)cc3)CC21 (centres unmarked) [Example 230]
- EC50 (Table 7, cAMP, CHO cells, ranges as given for Tables 6 and 7, read-out: Human β3 agonist functional activity): 10 to 99.9 nM

Compound: O=C(c1ccc(C[C@@H]2CC[C@H]([C@H](O)c3ccccc3)N2)cc1)N1CCC(c2nnc(-c3cnccn3)[nH]2)CC1 [Example 81]
- EC50 [3]: 100 to 999 nM

Compound: CC(C(=O)N1CCCC2(CCCCO2)C1)N1CCN(C(=O)c2ccc(C[C@@H]3CC[C@H]([C@H](O)c4ccccc4)N3)cc2)CC1 (some centres unmarked) [Example 498]
- EC50 [2]: 10 to 99.9 nM

Compound: O=C(c1ccc(C[C@@H]2CC[C@H]([C@H](O)c3ccccc3)N2)cc1)N1CCC(Cn2ncccc2=O)CC1 [Example 148]
- EC50 [3]: 10 to 99.9 nM

Compound: C[C@@H]1CN(Cc2ccccn2)CCN1C(=O)c1ccc(C[C@@H]2CC[C@H]([C@H](O)c3ccccc3)N2)cc1 [Example 529]
- EC50 [4]: 100 to 999 nM

Compound: O=C(c1ccc(C[C@@H]2CC[C@H]([C@H](O)c3cccnc3)N2)cc1)N1CCC2Oc3ccccc3OC2C1 (some centres unmarked) [Example 59]
- EC50 [5]: 10 to 99.9 nM

Compound: O=C(c1ccc(C[C@@H]2CC[C@H]([C@H](O)c3ccccc3)N2)cc1)N1CCC2(CC1)C(=O)Nc1ccccc12 [Example 299]
- EC50 [1]: 10 to 99.9 nM

Compound: O=C(c1ccc(C[C@@H]2CC[C@H]([C@H](O)c3ccccc3)N2)cc1)N1CCN(c2ccc[nH]c2=O)CC1 [Example 387]
- EC50 [6]: 10 to 99.9 nM

Compound: C[C@@H](c1ccccn1)N1CC2CC1CN2C(=O)c1ccc(C[C@@H]2CC[C@H]([C@H](O)c3ccccc3)N2)cc1 (some centres unmarked) [Example 538]
- EC50 [4]: 100 to 999 nM

Compound: O=C(c1ccc(C[C@@H]2CC[C@H]([C@H](O)c3ccccc3)N2)cc1)N1CCn2cnnc2C1 [Example 548]
- EC50 [4]: 100 to 999 nM

Compound: O=C(c1ccc(C[C@@H]2CC[C@H]([C@H](O)c3ccccc3)N2)cc1)N1CC2CCC1CN2Cc1ccccn1 (some centres unmarked) [Example 536]
- EC50 [4]: 100 to 999 nM

Compound: CC(C(=O)NCc1cn2ccsc2n1)N1CCN(C(=O)c2ccc(C[C@@H]3CC[C@H]([C@H](O)c4ccccc4)N3)cc2)CC1 (some centres unmarked) [Example 467]
- EC50 [2]: 10 to 99.9 nM

Compound: Cc1nc2c(o1)CN(C(=O)C(C)N1CCN(C(=O)c3ccc(C[C@@H]4CC[C@H]([C@H](O)c5ccccc5)N4)cc3)CC1)CC2 (some centres unmarked) [Example 504]
- EC50 [2]: 1 to 9.9 nM

Compound: CC(C(=O)N1Cc2cccnc2C1)N1CCN(C(=O)c2ccc(C[C@@H]3CC[C@H]([C@H](O)c4ccccc4)N3)cc2)CC1 (some centres unmarked) [Example 482]
- EC50 [2]: 10 to 99.9 nM

Compound: O=C1OC2(CCN(C(=O)c3ccc(C[C@@H]4CC[C@H]([C@H](O)c5cccnc5)N4)cc3)CC2)CC1Cc1ccc(F)cc1 (some centres unmarked) [Example 277]
- EC50 [1]: 1 to 9.9 nM

Compound: CC(C)C1CC2(CCN(C(=O)c3ccc(CC4CCC(C(O)c5ccccc5)N4)cc3)CC2)C(=O)O1 (single isomer, unassigned) [Example 567]
- EC50 [7]: 1 to 9.9 nM

Compound: O=C(c1ccc(C[C@@H]2CC[C@H]([C@H](O)c3ccccc3)N2)cc1)N1CCN(Cc2n[nH]c3ccccc23)CC1 [Example 405]
- EC50 [6]: 1 to 9.9 nM

Compound: CC(c1nccs1)N1CCN(C(=O)c2ccc(CC3CCC(C(O)c4ccccc4)N3)cc2)CC1 (single isomer, unassigned) [Example 581]
- EC50 [7]: 1 to 9.9 nM

Compound: O=C(c1ccc(C[C@@H]2CC[C@H]([C@H](O)c3ccccc3)N2)cc1)N1CCC(n2cnnc2)CC1 [Example 91]
- EC50 [3]: 100 to 999 nM

Compound: O=C(c1ccc(C[C@@H]2CC[C@H]([C@H](O)c3ccccc3)N2)cc1)N1CCCC(S(=O)(=O)c2ncc(Br)s2)C1 (some centres unmarked) [Example 38]
- EC50 [5]: 10 to 99.9 nM

Compound: O=C(c1ccc(C[C@@H]2CC[C@H]([C@H](O)c3cccnc3)N2)cc1)N1CCN(c2nccs2)CC1 [Example 379]
- EC50 [6]: 100 to 999 nM

Compound: O=C(c1ccc(C[C@@H]2CC[C@H]([C@H](O)c3ccccc3)N2)cc1)N1CCC(c2nc(-c3cnccn3)no2)CC1 [Example 83]
- EC50 [3]: 100 to 999 nM

Compound: O=C1NC2(CCN(C(=O)c3ccc(C[C@@H]4CC[C@H]([C@H](O)c5ccccc5)N4)cc3)CC2)Oc2ccccc21 [Example 332]
- EC50 [1]: 10 to 99.9 nM

Compound: COc1ccc2c(n1)C1(CCN(C(=O)c3ccc(C[C@@H]4CC[C@H]([C@H](O)c5ccccc5)N4)cc3)CC1)OC2=O [Example 288]
- EC50 [1]: 10 to 99.9 nM

Compound: CCc1noc(CNC(=O)C(C)N2CCN(C(=O)c3ccc(C[C@@H]4CC[C@H]([C@H](O)c5ccccc5)N4)cc3)CC2)n1 (some centres unmarked) [Example 465]
- EC50 [2]: 10 to 99.9 nM

Compound: Cc1nonc1CN(C)C(=O)C(C)N1CCN(C(=O)c2ccc(C[C@@H]3CC[C@H]([C@H](O)c4ccccc4)N3)cc2)CC1 (some centres unmarked) [Example 512]
- EC50 [2]: 10 to 99.9 nM

Compound: O=C(c1ccc(C[C@@H]2CC[C@H]([C@H](O)c3ccccc3)N2)cc1)N1CCN(Cc2cnn(-c3ccccc3)n2)CC1 [Example 408]
- EC50 [6]: 1 to 9.9 nM

Compound: O=C(c1ccc(C[C@@H]2CC[C@H]([C@H](O)c3ccccc3)N2)cc1)N1CCC(Cn2ccnc2)CC1 [Example 142]
- EC50 [3]: 100 to 999 nM

Compound: NC(=O)CN1CCN(C(=O)c2ccc(C[C@@H]3CC[C@H]([C@H](O)c4ccccc4)N3)cc2)CC1 [Example 388]
- EC50 [6]: 100 to 999 nM

Compound: O=C(c1ccc(C[C@@H]2CC[C@H]([C@H](O)c3ccccc3)N2)cc1)N1CC2CC(n3cnnn3)CC2C1 (some centres unmarked) [Example 23]
- EC50 [5]: 10 to 99.9 nM

Compound: O=C(c1ccc(C[C@@H]2CC[C@H]([C@H](O)c3ccccc3)N2)cc1)N1CCC(O)(Cc2ccccc2)CC1 [Example 245]
- EC50 [1]: 10 to 99.9 nM

Compound: CCN1CCC2(CCN(C(=O)c3ccc(C[C@@H]4CC[C@H]([C@H](O)c5ccccc5)N4)cc3)CC2)C1=O [Example 252]
- EC50 [1]: 100 to 999 nM

Compound: C[C@@H](c1ccccn1)N1C2CCC1C1CCC2N1C(=O)c1ccc(C[C@@H]2CC[C@H]([C@H](O)c3ccccc3)N2)cc1 [Example 526]
- EC50 (human β3 functional activity): 10 to 99.9 nM

Compound: COCCNC(=O)C(C)N1CCN(C(=O)c2ccc(C[C@@H]3CC[C@H]([C@H](O)c4ccccc4)N3)cc2)CC1 (some centres unmarked) [Example 442]
- EC50 [2]: 100 to 999 nM

Compound: Cn1ccnc1C1CCCCN1C(=O)c1ccc(C[C@@H]2CC[C@H]([C@H](O)c3ccccc3)N2)cc1 (some centres unmarked) [Example 51]
- EC50 [5]: 100 to 999 nM

Compound: O=C1CC(c2ccccc2)C2(CCN(C(=O)c3ccc(CC4CCC(C(O)c5cccnc5)N4)cc3)CC2)O1 (single isomer, unassigned) [Example 560]
- EC50 [7]: 1 to 9.9 nM

Compound: O=C(c1ccc(C[C@@H]2CC[C@H]([C@H](O)c3ccccc3)N2)cc1)N1CCCC1c1nccs1 (some centres unmarked) [Example 15]
- EC50 [5]: 100 to 999 nM

Compound: O=C(c1ccc(C[C@@H]2CC[C@H]([C@H](O)c3cccnc3)N2)cc1)N1CCC(c2cccc(F)n2)CC1 [Example 113]
- EC50 [3]: 10 to 99.9 nM

Compound: CC(C(=O)NCc1nccn1C)N1CCN(C(=O)c2ccc(C[C@@H]3CC[C@H]([C@H](O)c4ccccc4)N3)cc2)CC1 (some centres unmarked) [Example 463]
- EC50 [2]: 100 to 999 nM

Compound: O=C(c1ccc(C[C@@H]2CC[C@H]([C@H](O)c3ccccc3)N2)cc1)N1CCC(n2cc(-c3ccccc3)[nH]c2=O)CC1 [Example 84]
- EC50 [3]: 10 to 99.9 nM

Compound: CC(c1nccs1)N1CCN(C(=O)c2ccc(CC3CCC(C(O)c4ccccc4)N3)cc2)CC1 (single isomer, unassigned) [Example 582]
- EC50 [7]: 10 to 99.9 nM

Compound: O=C(c1ccc(C[C@@H]2CC[C@H]([C@H](O)c3cccnc3)N2)cc1)N1CCCC1c1ccccc1F (some centres unmarked) [Example 16]
- EC50 [5]: 100 to 999 nM

Compound: O=C1OCCC1N1CCN(C(=O)c2ccc(CC3CCC(C(O)c4ccccc4)N3)cc2)CC1 (single isomer, unassigned) [Example 604]
- EC50 [7]: 1 to 9.9 nM

Compound: O=C(c1ccc(C[C@@H]2CC[C@H]([C@H](O)c3ccccc3)N2)cc1)N1CC2CCNC2C1 (some centres unmarked) [Example 24]
- EC50 [5]: 100 to 999 nM

Compound: O=C(c1ccc(C[C@@H]2CC[C@H]([C@H](O)c3ccccc3)N2)cc1)N1CCN(Cc2ncccc2C(F)(F)F)CC1 [Example 417]
- EC50 [6]: 10 to 99.9 nM

Compound: O=C(OCc1ccccc1)C1CCN(C(=O)c2ccc(C[C@@H]3CC[C@H]([C@H](O)c4ccccc4)N3)cc2)CC1 [Example 119]
- EC50 [3]: 10 to 99.9 nM

Compound: O=C(c1ccc(C[C@@H]2CC[C@H]([C@H](O)c3ccccc3)N2)cc1)N1CCC(c2cccc(F)n2)CC1 [Example 112]
- EC50 [3]: 10 to 99.9 nM

Compound: O=C(c1ccc(C[C@@H]2CC[C@H]([C@H](O)c3ccccc3)N2)cc1)N1CCN(S(=O)(=O)c2ccccc2)CC1 [Example 346]
- EC50 [6]: 10 to 99.9 nM

Compound: CC1(c2nn[nH]n2)CCN(C(=O)c2ccc(C[C@@H]3CC[C@H]([C@H](O)c4ccccc4)N3)cc2)CC1 [Example 243]
- EC50 [1]: 100 to 999 nM

Compound: COc1ccc2c(c1)C(=O)CC1(CCN(C(=O)c3ccc(C[C@@H]4CC[C@H]([C@H](O)c5ccccc5)N4)cc3)CC1)S2 [Example 328]
- EC50 [1]: 1 to 9.9 nM

Compound: O=C1CC(c2ccccc2)C2(CCN(C(=O)c3ccc(C[C@@H]4CC[C@H]([C@H](O)c5ccccc5)N4)cc3)CC2)O1 (some centres unmarked) [Example 280]
- EC50 [1]: 1 to 9.9 nM

Compound: CCC(C)(C)NC(=O)C(C)N1CCN(C(=O)c2ccc(C[C@@H]3CC[C@H]([C@H](O)c4ccccc4)N3)cc2)CC1 (some centres unmarked) [Example 439]
- EC50 [2]: 1 to 9.9 nM

Compound: O=C(c1ccc(C[C@@H]2CC[C@H]([C@H](O)c3ccccc3)N2)cc1)N1CCN(c2ccccn2)C(=O)C1 [Example 546]
- EC50 [4]: 100 to 999 nM

Compound: O=C(c1ccc(C[C@@H]2CC[C@H]([C@H](O)c3ccccc3)N2)cc1)N1CC2CC1CN2Cc1ccccn1 (some centres unmarked) [Example 534]
- EC50 [4]: 100 to 999 nM
